{"source": "paper PMC9503133", "about": "“In Vitro Release, Mucosal Permeation and Deposition of Cannabidiol from Liquisolid Systems: The Influence of Liquid Vehicles” (Pharmaceutics, 2022)", "key": {"[1]": {"test": "CBD solubility in liquid vehicles (excess CBD, shaking 24 h, HPLC)", "assay_type": "physicochemical", "procedure": "The solubility of CBD in the investigated liquids was examined by adding the excess mass of CBD into 1 g of each test liquid in a test tube. The mixture was sonicated (1 h) using an ultrasonicator (Model LUC-405, Daihan Labtech Co., Ltd., Namyangju-si, Korea) and agitated constantly (37 ± 0.5 °C, 24 h) using a shaking water bath (Model LSB-030S, Daihan Labtech Co., Ltd., Namyangju-si, Korea), and the supernatant was filtered through a 0.45 μm syringe filter. The obtained filtrate was weighed, diluted and quantified by HPLC assay. The CBD solubility in the terms of the mg of CBD per g of liquid was calculated.\nThe amount of CBD was assessed using a modified HPLC method. An Agilent series 1260 combined with an Agilent ZORBAX Eclipse Plus column (C18, 100 × 4.6 mm, 3.5 μm) (Agilent Technologies, Inc., Santa Clara, CA, USA.) was used. The chromatographic separation was attained in 10 min using an isocratic protocol with a mixture of water:acetonitrile (30:70 v/v) comprising 0.1% formic acid set at a 1.5 mL/min flow rate. The injection volume was 20 µL. The column temperature was set at 45 °C, while the UV detector was set to 220 nm."}, "[2]": {"parameters": "method as in PMID 34774694, PMID 32882367", "conditions": "ref [3],[4]; cited from earlier work"}, "[3]": {"conditions": "cited from earlier work"}}, "note": "Where “and” joins values, the source holds several entries; their conditions need not be identical. Identical values can stand only once. Like-named read-outs stand apart in the source and are kept apart here. Marks after values point to notes of the source that are not given here."}
{"smiles": "C=C(C)[C@@H]1CCC(C)=C[C@H]1c1c(O)cc(CCCCC)cc1O", "note": "[CBD, Cannabidiol]", "values": [{"measurement": "CBD Solubility", "setting": "[1]; in CM, 37 ± 0.5 °C", "result": "386.77 ± 48.85 ^b mg/g"}, {"measurement": "CBD Solubility", "setting": "[1]; in DEGEE, 37 ± 0.5 °C", "result": "579.46 ± 11.79 ^a mg/g"}, {"measurement": "CBD Solubility", "setting": "[1]; in EtOH, 37 ± 0.5 °C", "result": ">1000", "unit": "mg/g"}, {"measurement": "CBD Solubility", "setting": "[1]; in OM, 37 ± 0.5 °C", "result": "540.31 ± 4.59 ^a mg/g"}, {"measurement": "CBD Solubility", "setting": "[1]; in P20, 37 ± 0.5 °C", "result": "261.73 ± 39.33 ^c mg/g"}, {"measurement": "CBD Solubility", "setting": "[1]; in PEG, 37 ± 0.5 °C", "result": "342.18 ± 49.90 ^b mg/g"}, {"measurement": "CBD Solubility", "setting": "[1]; in PG, 37 ± 0.5 °C", "result": "521.04 ± 55.42 ^a mg/g"}, {"measurement": "CBD Solubility", "setting": "[1]; in glycerin, 37 ± 0.5 °C", "result": "0.09 ± 0.03 ^d mg/g"}, {"measurement": "solubility at 24 h", "setting": "[1]; simulated saliva fluid (SSF), simulated saliva fluid pH 6.8, read-out: solubility of CBD in pH 6.8 SSF", "result": "< 5", "unit": "µg/mL"}, {"measurement": "solubility at 24 h", "setting": "[1]; water, converted with the specific gravity of water, read-out: CBD solubility in water", "result": "< 5", "unit": "µg/mL"}, {"measurement": "calculated log n-octanol–water partition coefficient (Kow)", "setting": "[2]", "result": "8 and ~ 8"}, {"measurement": "solubility of CBD in 50% EtOH", "setting": "[3]; 50% EtOH receiver medium, ref Casirahi et al. [44]", "result": "2200 ± 100", "unit": "µg/mL"}, {"measurement": "water solubility", "setting": "[3]; ref [3],[4]", "result": 5, "unit": "ppm"}]}
